Laboratory results as given in article PMC6438780 (Xenobiotica; the fate of foreign compounds in biological …, 2018).
Read-outs that look alike come from different tables or passages of the source.

Legend:
[1] = tested on: liver microsomes of humans; conditions: ref data sheets provided by the manufacturer, cited from earlier work
human liver microsomes [2] = assay: Effects of CYP-specific inhibitors; conditions: liver sample HH54 microsomes
human liver microsomes [3] = tested on: human liver microsomes
human liver microsomes [4] = assay: Oxidation of flavanone and flavone by human liver microsomes; conditions: P450s and human liver microsomes, whole assay system
CYP2A6.1 = molecular target: T1, CYP2A6.1 (Homo sapiens, UniProt P11509); conditions: 20 min, 60 µM
T1 sequence (P11509 1-494): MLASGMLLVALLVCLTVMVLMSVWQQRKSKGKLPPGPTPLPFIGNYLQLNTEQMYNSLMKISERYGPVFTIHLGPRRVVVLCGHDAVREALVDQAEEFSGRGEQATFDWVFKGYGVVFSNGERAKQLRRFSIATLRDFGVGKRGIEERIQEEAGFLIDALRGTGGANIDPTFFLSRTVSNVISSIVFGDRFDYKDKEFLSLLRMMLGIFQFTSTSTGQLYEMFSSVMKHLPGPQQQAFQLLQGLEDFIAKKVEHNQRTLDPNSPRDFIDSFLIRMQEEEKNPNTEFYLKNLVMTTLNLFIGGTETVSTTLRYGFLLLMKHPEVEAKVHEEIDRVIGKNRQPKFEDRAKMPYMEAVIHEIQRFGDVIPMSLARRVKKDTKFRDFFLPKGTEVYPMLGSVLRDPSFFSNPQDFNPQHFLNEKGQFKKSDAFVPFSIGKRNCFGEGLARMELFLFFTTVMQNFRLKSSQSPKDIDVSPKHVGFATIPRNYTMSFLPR

## O=c1ccc2ccccc2o1 [coumarin]
[1]; human sample HG95
  Coumarin 7-hydroxylation: 0.18 nmol/mg/min
[1]; human sample HH2
  Coumarin 7-hydroxylation: no detectable
[1]; human sample HH47
  Coumarin 7-hydroxylation: 0.51 nmol/mg/min
[1]; human sample HH54
  Coumarin 7-hydroxylation: 2.5 nmol/mg/min
Human liver microsomes [2]; 60 µM flavanone
  effect on formation of flavone (from flavanone): inhibited
Human liver microsomes [2]; 60 µM flavanone, low concentration of inhibitor
  effect on 2´OHFva formation (from flavanone): markedly decreased
Human liver microsomes [2]; 60 µM flavone, low concentration of inhibitor
  effect on formation of OHFM6, OHFM9, and diOHFM4 (from flavone): strongly inhibited

## CC[C@@]1(c2ccccc2)NC(=O)N(C)C1=O [S-Mephenytoin]
[1]; human sample HG95
  S-Mephenytoin 4’-hydroxylation: 0.015 nmol/min/mg
  S-Mephenytoin N-demethylation: 0.0070 nmol/min/mg
[1]; human sample HH2
  S-Mephenytoin 4’-hydroxylation: 0.020 nmol/min/mg
  S-Mephenytoin N-demethylation: 0.010 nmol/min/mg
[1]; human sample HH47
  S-Mephenytoin 4’-hydroxylation: 0.0040 nmol/min/mg
  S-Mephenytoin N-demethylation: 0.0065 nmol/min/mg
[1]; human sample HH54
  S-Mephenytoin 4’-hydroxylation: 0.026 nmol/min/mg
  S-Mephenytoin N-demethylation: 0.0010 nmol/min/mg

## CC(=O)O[C@H]1C(=O)[C@@]2(C)[C@H]([C@H](OC(=O)c3ccccc3)[C@]3(O)C[C@H](OC(=O)[C@H](O)[C@@H](NC(=O)c4ccccc4)c4ccccc4)C(C)=C1C3(C)C)[C@]1(OC(C)=O)CO[C@@H]1C[C@@H]2O [Paclitaxel]
[1]; human sample HG95
  Paclitaxel 6a-hydroxylation: 0.093 nmol/min/mg
[1]; human sample HH2
  Paclitaxel 6a-hydroxylation: 0.13 nmol/min/mg
[1]; human sample HH47
  Paclitaxel 6a-hydroxylation: 0.13 nmol/min/mg
[1]; human sample HH54
  Paclitaxel 6a-hydroxylation: 0.21 nmol/min/mg

## CCOc1ccc(NC(C)=O)cc1 [Phenacetin]
[1]; human sample HG95
  Phenacetin O-deethylation: 0.26 nmol/mg/min
[1]; human sample HH2
  Phenacetin O-deethylation: 0.51 nmol/mg/min
[1]; human sample HH47
  Phenacetin O-deethylation: 0.36 nmol/mg/min
[1]; human sample HH54
  Phenacetin O-deethylation: 0.44 nmol/mg/min

## O=C1CC(c2ccccc2)Oc2ccccc21 (stereo not drawn) [flavanone, Flavanone]
Human liver microsomes [3]
  rate of formation of flavone from flavanone: 0.15 nmol/min/nmol

## C[C@]12CC[C@H]3[C@@H](CCC4=CC(=O)CC[C@@]43C)[C@@H]1CC[C@@H]2O [Testosterone]
[1]; human sample HG95
  Testosterone 6β-hydroxylation: 0.64 nmol/mg/min
[1]; human sample HH2
  Testosterone 6β-hydroxylation: 0.78 nmol/mg/min
[1]; human sample HH47
  Testosterone 6β-hydroxylation: 4.1 nmol/mg/min
[1]; human sample HH54
  Testosterone 6β-hydroxylation: 4.9 nmol/mg/min

## O=c1cc(-c2ccccc2)oc2ccccc12 [flavone]
Human liver microsomes [4]
  enzymatic formation of 7OHF from flavone: did not detect
CYP2A6.1
  rate of formation of 5OHF from flavone: ~ 0.01 nmol/min/nmol P450
  rate of formation of 6OHF from flavone: 0.11 min⁻¹

## O=c1cc(-c2ccccc2)oc2c1ccc1ccccc12 [ANF, α-naphthoflavone]
Human liver microsomes [2]; 60 µM flavanone
  effect on formation of 7OHFva, 3´OHFva, 4´OHFva OHFvaM5, and OHFvaM6 (from flavanone): inhibited
Human liver microsomes [2]; 60 µM flavone
  effect on formation of OHFM11, diOHFM3, and diOHFM5 (from flavone): inhibited
